Values joined by “and” are separate entries in the source; they are usually repeats but may differ in a detail not shown here. Identical values can stand only once. Where a SMILES comes first, the peptide text is derived from it. [ ]: non-standard residue; d: D form. Bpa = N[C@@H](Cc1ccc(C(=O)c2ccccc2)cc1)C(=O)O
Assays:
HIV-1 integrase (IN) [1] = target: T1, HIV-1 integrase (IN) (Human immunodeficiency virus type 1 group M subtype B, UniProt P12497); assay: In vitro integrase catalytic assay, 3'-processing (3'-P); assay type: biochemical; conditions: 400 nM IN, 20 nM 32P-labeled 21T/21B DNA, 37 °C, 2 h
Procedure: (§1) IN reactions were performed as previously described. […] Reactions were performed at 37 °C (2 h) and quenched by the addition of an equal volume of loading buffer (formamide containing 1% sodium dodecyl sulfate, 0.25% bromophenol blue, and xylene cyanol). Reaction products were separated in 16% polyacrylamide denaturing sequencing gels. Dried gels were visualized using a Typhoon 8600 instrument (GE Healthcare, Chicago, IL, USA). Densitometric analyses were performed using ImageQuant 5.1 software (GE Healthcare, Chicago, IL, USA). Data analyses (linear regression, 50% inhibitory concentration [IC50] determination, standard deviation [SD]) were performed from at least 3 independent determinations using Prism 5.0c software from GraphPad (La Jolla, CA, USA). To assay 3′-P inhibitory potency, reactions were carried out with [γ-^32P]-labeled full-length oligonucleotide 21T ([…]) annealed to the complementary oligonucleotide 21B ([…]). Formation of the shorter processed 19T products was monitored and quantified to assess enzyme performance and inhibitor potency. The ST reactions were carried out with the [γ-^32P]-labeled pre-cleaved oligonucleotide 19T ([…]) annealed to the complementary oligonucleotide 21B ([…]) and formation of integration products (longer and slower migrating than the starting 19T substrate) was monitored to assess enzyme performance and inhibitor potency.

HIV-1 integrase (IN) [2] = target: T1, HIV-1 integrase (IN); assay: In vitro integrase catalytic assay, strand transfer (ST); assay type: biochemical; conditions: 400 nM IN, 20 nM 32P-labeled pre-cleaved 19T/21B DNA, 37 °C, 2 h
Procedure: as §1

IN-DNA complex = IN-DNA complex (Human immunodeficiency virus type 1 group M subtype B, UniProt P12497); assay: IN-DNA complex formation by fluorescence anisotropy; assay type: binding, HIV-1; conditions: IN (400 nM) preincubated with peptide, 10 nM DNA
Procedure: (§2) DNA binding was measured using a plate-based assay following fluorescence polarization of a fluorescent 21-mer duplex DNA substrate (21T/21B duplex oligonucleotide) with an AlexaFluor 488 modification at the 5′-end of the 21T oligonucleotide. Peptide or DMSO (control, without peptide) were incubated at room temperature for 5 min in the IN-activity buffer in the absence or the presence of IN (400 nM). After addition of the DNA (10 nM), fluorescence anisotropy was measured every 30 s for 30 min using an Envision plate reader (Perkin Elmer, Waltham, MA, USA).

[3] = system: 21-mer duplex DNA substrate (21T/21B); assay: Binding to DNA substrate alone by fluorescence anisotropy; conditions: absence of IN; concentrations up to 37 µM
Procedure: as §2

HIV-1 IN [4] = target: T2, HIV-1 IN (Human immunodeficiency virus type 1 group M subtype B, UniProt P12497); assay: HTRF-based IN multimerization assay; assay type: biochemical; parameters: WT HIV-1 IN recombinant proteins with His or FLAG tags; made in house; host or cells: Escherichia coli; conditions: 100 µM peptide
Procedure: WT HIV-1 IN recombinant proteins with His or FLAG tags were expressed in Escherichia coli and purified as described previously. The His6–tagged IN construct was purified by loading the cell lysate onto a Nickel-Sepharose column (GE Healthcare, Chicago, IL, USA) and eluting bound integrase with an imidazole gradient in a 50 mM HEPES (pH 7.5) buffer containing 1 M NaCl, 7.5 mM CHAPS, 2 mM beta-mercaptoethanol. Peak fractions were pooled, diluted and loaded onto a heparin column (GE Healthcare), and integrase was eluted with an increasing NaCl gradient in a 50 mM HEPES (pH 7.5) buffer containing 7.5 mM CHAPS and 2 mM beta-mercaptoethanol. The FLAG-tagged IN construct was purified by loading the ammonium sulfate precipitate of cell lysate onto a phenyl-Sepharose column (GE Healthcare) and eluting bound integrase with a decreasing ammonium sulfate gradient in a 50 mM HEPES (pH 7.5) buffer containing 200 mM NaCl, 7.5 mM CHAPS, 2 mM beta-mercaptoethanol. Peak fractions were pooled and loaded onto a heparin column (GE Healthcare), and integrase was eluted with an increasing NaCl gradient in a 50 mM HEPES (pH 7.5) buffer containing 7.5 mM CHAPS and 2 mM beta-mercaptoethanol. […] The HTRF signal was recorded using a PerkinElmer EnSpire multimode plate reader.

HIV-1 IN [5] = target: T2, HIV-1 IN; assay: UV photo-crosslinking to IN with Western blot detection; assay type: binding; conditions: 15 (111 µM), IN (3.2 µM)
Procedure: Peptide 15 (111 µM), containing a photo-reactive Bpa group and a biotin linked to its amino terminus, was incubated for 2 h at 37 °C in the absence or the presence of IN (3.2 µM) before UV irradiation (5 min at […]). After adding 2 × 10 µL of loading buffer, samples were heat-denatured at 95 °C (5 min). Products were separated on 16% SDS-PAGE and transferred to a PVDF membrane using an iBlot system (Invitrogen, Carlsbad, CA, USA). […] Reading was performed using an Odyssey® Infrared Imaging System (LI-COR Biotechnology, Lincoln, NE, USA).

IN = system: IN; parameters: method as in PMID 17490682; conditions: read-out: IN ST-inhibitory potency IC50; cited from earlier work

Compound | IC50 (HIV-1 integrase (IN) [1]) | IC50 (HIV-1 integrase (IN) [2]) | Effect on IN-DNA complex formation (fluorescence polarization) (IN-DNA complex) | Binding to DNA substrate alone [3] | Induction of higher-order IN multimerization (HTRF signal) (HIV-1 IN [4]) | Covalent crosslinking to IN upon UV irradiation (HIV-1 IN [5]) | IC50 (IN)
CC[C@H](C)[C@H](NC(=O)[C@H](CCCNC(=N)N)NC(=O)[C@H](Cc1ccccc1)NC(=O)[C@H](Cc1c[nH]cn1)NC(=O)[C@@H](NC(=O)[C@@H](N)Cc1ccccc1)[C@@H](C)CC)C(=O)NCC(=O)O [Peptide 1a, FIHFRIG] (H-FIHFRIG-OH) | 17.6 ± 1.2 µM | 1 µM and 1.3 µM | did not block the IN–DNA interactions, but rather promoted IN–DNA complex formation | no detectable binding | did not induce higher-order IN multimerization | – | –
CC[C@H](C)[C@H](NC(=O)[C@H](CCCNC(=N)N)NC(=O)[C@H](Cc1ccccc1)NC(=O)[C@H](Cc1c[nH]cn1)NC(=O)[C@H](Cc1ccc(C(=O)c2ccccc2)cc1)NC(=O)[C@@H](N)Cc1ccccc1)C(=O)NCC(=O)O [Peptide 13a, FBHFRIG] (H-F[Bpa]HFRIG-OH) | 37 ± 5 µM | 20 ± 3 µM | – | – | – | – | –
CC[C@H](C)[C@H](NC(=O)[C@H](CCCNC(=N)N)NC(=O)[C@H](Cc1ccccc1)NC(=O)[C@H](Cc1c[nH]cn1)NC(=O)[C@@H](NC(=O)[C@@H](N)Cc1ccc(C(=O)c2ccccc2)cc1)[C@@H](C)CC)C(=O)NCC(=O)O [Peptide 14a, BIHFRIG] (H-[Bpa]IHFRIG-OH) | 7.2 ± 1.2 µM | 2.1 ± 0.3 µM | – | – | – | – | –
Biotin-linker-BIHFRIG [Peptide 15] | 32 ± 7 µM | 2.3 ± 0.3 µM | – | – | – | covalent adducts of 15 with IN | –
QQLLFIHFRIGCQHS [Vpr (65–79)] | – | – | – | – | – | – | 14 µM

— paper PMC6222646, “HIV-1 Integrase-Targeted Short Peptides Derived from a Viral Protein R Sequence” (Molecules : A Journal of Synthetic Chemistry and Natural …, 2018)
